Assay [1] relates to T-cell. The experiment in a line: CD25 cell surface staining on T-cells co-stimulated with anti-CD3 and anti-CD28 antibody (Biological Example 2). The class given is cell-based, human. Conditions: Homo sapiens, T-cell, read-out: CD25 staining Anti-CD3/Anti-CD28 stimulation; for fold induction at 0.3 µM: 0.3 μM Cbl-b inhibitor; for fold induction at 1 µM: 1 μM Cbl-b inhibitor; for fold induction at 4 µM: 4 μM Cbl-b inhibitor. The source says: (§1) Methods for experimentally determining increased T-cell activation, increased T-cell proliferation, decreased T-cell exhaustion, and/or decreased T-cell tolerance are well known in the art.
(§2) Modulation of activity of an immune cell, such as a T-cell, a B cell or a NK cell can be measured by determining a baseline value for a parameter of interest (e.g., cytokine secretion). […] A reference value then is obtained for T-cell activation after contacting or administering said Cbl-b inhibitor. The reference value is compared to the baseline value in order to determine the amount of T-cell activation due to contact or administration of the Cbl-b inhibitor or composition thereof. […] Immune cell activation can be assessed by measuring biological markers of activation such as increased cytokine secretion, increased cell surface expression of activation markers (e.g., cell surface markers), or increased phosphorylation of proteins in a downstream signaling pathway. The fold over baseline value that indicates immune cell activation can be determined for the parameter being tested and the conditions under which the immune cell were treated. For example, for measuring T-cell activation, a baseline value can be obtained from T-cells stimulated with anti-CD3 antibody in combination with anti-CD28 antibody, wherein the cells are not incubated with a Cbl-b inhibitor. […] A positive response for immune cell activation can then be determined by the obtained reference value. […]

For assay [2], the system named is T-cell. The experiment in a line: CD25 cell surface staining on T-cells stimulated with anti-CD3 antibody alone (Biological Example 2). In kind it is cell-based, human. Conditions: T-cell, read-out: CD25 staining Anti-CD3 stimulation; for fold induction at 1 µM: 1 μM Cbl-b inhibitor; for fold induction at 8 µM: 8 μM Cbl-b inhibitor.
Source text: as §1
(§3) Modulation of activity of an immune cell, such as a T-cell, a B cell or a NK cell can be measured by determining a baseline value for a parameter of interest (e.g., cytokine secretion). […] A reference value then is obtained for T-cell activation after contacting or administering said Cbl-b inhibitor. The reference value is compared to the baseline value in order to determine the amount of T-cell activation due to contact or administration of the Cbl-b inhibitor or composition thereof. […] Immune cell activation can be assessed by measuring biological markers of activation such as increased cytokine secretion, increased cell surface expression of activation markers (e.g., cell surface markers), or increased phosphorylation of proteins in a downstream signaling pathway. The fold over baseline value that indicates immune cell activation can be determined for the parameter being tested and the conditions under which the immune cell were treated. For example, for measuring T-cell activation, a baseline value can be obtained from T-cells stimulated with anti-CD3 antibody in combination with anti-CD28 antibody, wherein the cells are not incubated with a Cbl-b inhibitor. […] A positive response for immune cell activation can then be determined by the obtained reference value.
(§4) In some embodiments, a baseline value can be obtained from T-cells stimulated with anti-CD3 antibody alone, wherein the cells are not incubated with a Cbl-b inhibitor. In some embodiments, a positive response for T-cell activation as measured by cytokine secretion (e.g., IL-2 secretion) by T-cells stimulated with anti-CD3 antibody alone in the presence of a Cbl-b inhibitor is at least 0.1-fold over the baseline value for cytokine secretion (e.g., IL-2 secretion) obtained from T-cells stimulated with anti-CD3 antibody alone in the absence of a Cbl-b inhibitor. In some embodiments, a positive response for T-cell activation as measured by surface marker expression (e.g., CD25 surface marker staining) by T-cells stimulated with anti-CD3 antibody alone in the presence of a Cbl-b inhibitor is at least 0.6-fold over the baseline value for surface marker expression (e.g., CD25 surface marker staining) obtained from T-cells stimulated with anti-CD3 antibody alone in the absence of a Cbl-b inhibitor.

The subject of assay [3] is T-cell. The experiment in a line: IL-2 secretion from T-cells co-stimulated with anti-CD3 and anti-CD28 antibody (Biological Example 2). In kind it is cell-based, human. The settings on record: Homo sapiens, T-cell, read-out: IL-2 secretion Anti-CD3/Anti-CD28 stimulation; for fold induction at 0.3 µM: 0.3 μM Cbl-b inhibitor; for fold induction at 1 µM: 1 μM Cbl-b inhibitor; for fold induction at 4 µM: 4 μM Cbl-b inhibitor.
Source text: as §1, §2

In assay [4] the target is T1, Cbl-b (Homo sapiens, UniProt Q13191). Kind of assay: Cbl-b activity assay (Cbl-b inhibition assay), TR-FRET of Cbl-b interaction with UbcH5B-Ub. In kind it is biochemical. Conditions: assay buffer with 100 mM NaCl, 60 nM Src kinase; read-out: Cbl-b activity IC50. An outline of the steps:
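TR-FRET readout of Cbl-b binding to Bodipy-fluorescein N-terminally labeled Ub conjugated to UbcH5B C85K, measured with compound present. After compound incubation, 60 nM Src kinase with 1 mM ATP and 5 mM MgCl2 (final) was added for 1.5 h, then a further 1 h incubation; asterisked values used 50 mM NaCl buffer and 30 nM Src.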
On the technique in general: Time-resolved FRET reads energy transfer from a long-lived donor to a nearby acceptor.

For assay [5], the system named is T-cell. Kind of assay: IL-2 secretion from T-cells stimulated with anti-CD3 antibody alone (Biological Example 2). In kind it is cell-based, human. The settings on record: T-cell, read-out: IL-2 secretion Anti-CD3 stimulation; for fold induction at 1 µM: 1 μM Cbl-b inhibitor; for fold induction at 8 µM: 8 μM Cbl-b inhibitor.
Source text: as §1, §3, §4

Assay [6] concerns the target T1, Cbl-b. Kind of assay: Cbl-b inhibition assay (Cbl-b activity assay, FRET, Biological Example 1; 100 mM NaCl, 60 nM Src kinase). In kind it is biochemical. Conditions: upper bound stated in text lists; read-out: IC50 values in the Cbl-b inhibition assay of Biological Example 1. An outline of the steps: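 Here, the E2 UbcH5B, irreversibly linked to Bodipy-fluorescein ubiquitin, binds Cbl-b once Src kinase phosphorylates it; Cbl-b carries an N-terminal biotinylated Avi-tag captured by streptavidin-terbium. An absent FRET signal indicates inhibition.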

[7] abbreviates: fold change over baseline, primary human total T-cells.
Where [8] appears, read: fold change over baseline (anti-CD3/anti-CD28 stimulated T-cells without inhibitor).
[9] abbreviates: Homo sapiens, fold change over baseline (anti-CD3/anti-CD28 stimulated T-cells without inhibitor).

Structures are written as SMILES.

T1 sequence (Q13191 36-427): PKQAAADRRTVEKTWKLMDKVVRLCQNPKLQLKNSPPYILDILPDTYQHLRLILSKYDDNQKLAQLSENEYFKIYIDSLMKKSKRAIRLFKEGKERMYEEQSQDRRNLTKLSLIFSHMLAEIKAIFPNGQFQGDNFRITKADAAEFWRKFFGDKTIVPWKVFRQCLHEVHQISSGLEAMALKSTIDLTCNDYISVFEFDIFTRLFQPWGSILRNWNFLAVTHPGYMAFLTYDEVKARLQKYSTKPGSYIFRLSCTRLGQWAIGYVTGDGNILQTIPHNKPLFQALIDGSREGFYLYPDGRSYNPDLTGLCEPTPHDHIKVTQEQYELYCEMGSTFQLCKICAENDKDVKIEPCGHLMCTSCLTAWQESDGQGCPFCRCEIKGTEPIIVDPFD

In general, IC50 refers to the concentration that gives 50% inhibition. Consider `Cn1cnnc1[C@H]1CC[C@H]1c1cccc(N2Cc3c(cccc3C(F)(F)F)C2=O)c1` (racemic) [Compound 283, cis-2-(3-(2-(4-Methyl-4H-1,2,4-triazol-3-yl)cyclobutyl)phenyl)-4-(trifluoromethyl)isoindolin-1-one], for which the fold induction at 0.3 µM with T-cell [1] (setting [7]) and in the assay on T-cell [3] (setting [7]) was below 1 in each case. The fold induction at 1 µM is below 1 in the assay with T-cell [1] (setting [7]), below 0.6 in the assay with T-cell [2] (setting [7]), 1.01 to 2.5 in the assay on T-cell [3] (setting [7]) and below 0.05 with T-cell [5] (setting [7]). Also, the fold induction at 4 µM with T-cell [1] (setting [7]) lay in the range of 1.01 to 1.3; with T-cell [3] (setting [7]), 1.01 to 2.5. Also, the values for the fold induction at 8 µM with T-cell [2] (setting [7]) and in the assay with T-cell [5] (setting [7]) were below 0.6 and 0.101 to 0.15, respectively. Moreover, the IC50 on Cbl-b [4] was 301 to 1000 nM; on Cbl-b [6] it was at most 1000 nM.

As to `C[C@@H](c1cccc(N2Cc3c(cccc3C(F)(F)F)C2=O)c1)[C@@H](O)c1nncn1C` (racemic) [Compound 292, cis-2-(3-(1-Hydroxy-1-(4-methyl-4H-1,2,4-triazol-3-yl)propan-2-yl)phenyl)-4-(trifluoromethyl)isoindolin-1-one], the fold induction at 0.3 µM in the assay on T-cell [1] (setting [7]) is 1.01 to 1.3; in the assay on T-cell [3] (setting [7]), 2.51 to 5. Besides, the fold induction at 1 µM in the assay with T-cell [1] (setting [7]) is below 1; in the assay with T-cell [2] (setting [7]) it was below 0.6; in the assay with T-cell [3] (setting [7]) it was 1.01 to 2.5; with T-cell [5] (setting [7]), below 0.05. Further, the fold induction at 4 µM in the assay with T-cell [1] (setting [7]) lay within 1.01 to 1.3; with T-cell [3] (setting [7]) it was 1.01 to 2.5. Further, the values for the fold induction at 8 µM with T-cell [2] (setting [7]) and in the assay with T-cell [5] (setting [7]) were below 0.6 and below 0.05, respectively. The IC50 on Cbl-b [4] is 1000 to 3000 nM; at Cbl-b [6], at most 10000 nM.

`C[C@@H](c1cccc(N2Cc3c(cccc3C(F)(F)F)C2=O)c1)[C@H](F)c1nncn1C` (relative stereo) [Compound 293, trans-2-(3-(1-fluoro-1-(4-methyl-4H-1,2,4-triazol-3-yl)propan-2-yl)phenyl)-4-(trifluoromethyl)isoindolin-1-one]: the fold induction at 0.3 µM was in the range of 1.01 to 1.3 in the assay with T-cell [1] (setting [7]) and 2.51 to 5 in the assay with T-cell [3] (setting [7]). The fold induction at 1 µM in the assay with T-cell [1] (setting [7]) was 1.01 to 1.3; with T-cell [2] (setting [7]), 0.601 to 0.8; with T-cell [3] (setting [7]), 2.51 to 5; in the assay with T-cell [5] (setting [7]) it was 0.101 to 0.15. Besides, the fold induction at 4 µM was in the range of 1.01 to 1.3 in the assay with T-cell [1] (setting [7]) and 2.51 to 5 in the assay with T-cell [3] (setting [7]). Besides, the results for the fold induction at 8 µM in the assay on T-cell [2] (setting [7]) and in the assay on T-cell [5] (setting [7]) were 0.801 to 1 and above 0.201, respectively. For the same molecule, the IC50 was 100 to 300 nM at Cbl-b [4] and at most 500 nM on Cbl-b [6].

As for `CO[C@@H]1CCN(Cc2cc3c(c(C(F)(F)F)c2)CN(c2cccc(C4(Cc5nncn5C)COC4)c2)C3=O)C[C@@H]1F` (relative stereo) [Example 621, 6-(((cis)-3-fluoro-4-methoxypiperidin-1-yl)methyl)-2-(3-(3-((4-methyl-4H-1,2,4-triazol-3-yl)methyl)oxetan-3-yl)phenyl)-4-(trifluoromethyl)isoindolin-1-one], the fold induction at 0.3 µM in the assay with T-cell [1] (setting [8]) was 1.31 to 1.5; in the assay on T-cell [3] (setting [8]), above 7.5. For the same molecule, the fold induction at 1 µM with T-cell [1] (setting [8]) was 1.31 to 1.5; with T-cell [2] (setting [9]), above 1; with T-cell [3] (setting [8]), above 7.5; in the assay with T-cell [5] (setting [9]), above 0.201. The IC50 on Cbl-b [4] is below 100 nM; at Cbl-b [6], at most 100 nM.

Regarding `C[C@@H]1CCN(Cc2cc3c(c(C(F)(F)F)c2)CN(c2cccc(C4(Cc5nncn5C)COC4)c2)C3=O)C[C@H]1F` (relative stereo) [Example 631, 6-((trans-3-fluoro-4-methylpiperidin-1-yl)methyl)-2-(3-(3-((4-methyl-4H-1,2,4-triazol-3-yl)methyl)oxetan-3-yl)phenyl)-4-(trifluoromethyl)isoindolin-1-one], the fold induction at 0.3 µM was 1.31 to 1.5 in the assay with T-cell [1] (setting [8]) and above 7.5 with T-cell [3] (setting [8]). The fold induction at 1 µM in the assay on T-cell [1] (setting [8]) was 1.51 to 1.75; in the assay with T-cell [2] (setting [9]), above 1; in the assay on T-cell [3] (setting [8]), above 7.5; in the assay with T-cell [5] (setting [9]), above 0.201. The IC50 at Cbl-b [4] is below 100 nM; on Cbl-b [6], at most 100 nM.

With `CC(Sc1nncn1C)c1cccc(NC(=O)c2ccc3ccccc3n2)c1` (centres unmarked) [Compound 9, N-(3-(1-((4-Methyl-4H-1,2,4-triazol-3-yl)thio)ethyl)phenyl)quinoline-2-carboxamide], the values for the fold induction at 0.3 µM in the assay on T-cell [1] (setting [7]) and in the assay with T-cell [3] (setting [7]) were below 1 and 1.01 to 2.5, respectively. For the same molecule, the fold induction at 1 µM in the assay with T-cell [1] (setting [7]) is below 1; in the assay with T-cell [2] (setting [7]), below 0.6; in the assay with T-cell [3] (setting [7]), 1.01 to 2.5; in the assay with T-cell [5] (setting [7]), below 0.05. For the same molecule, the fold induction at 4 µM in the assay with T-cell [1] (setting [7]) was 1.01 to 1.3; in the assay with T-cell [3] (setting [7]) it was 2.51 to 5. For the same molecule, the fold induction at 8 µM fell in the range of 0.601 to 0.8 in the assay with T-cell [2] (setting [7]) and 0.051 to 0.1 in the assay with T-cell [5] (setting [7]). Also, the IC50 at Cbl-b [6] was at most 1000 nM.

As to `C[C@H](Sc1nncn1C)c1cccc(NC(=O)c2ccc3ccccc3n2)c1` [Compound 9a], in the assay with T-cell [1] (setting [7]), the fold induction at 0.3 µM fell in the range of 1.01 to 1.3, the fold induction at 1 µM fell in the range of 1.01 to 1.3 and the fold induction at 4 µM fell in the range of 1.01 to 1.3. In the assay on T-cell [2] (setting [7]), the fold induction at 1 µM fell in the range of 0.601 to 0.8 and the fold induction at 8 µM lay in the range of 0.601 to 0.8. Besides, in the assay with T-cell [3] (setting [7]), the fold induction at 0.3 µM lay within 1.01 to 2.5, the fold induction at 1 µM is 1.01 to 2.5 and the fold induction at 4 µM was in the range of 1.01 to 2.5. Also, in the assay on T-cell [5] (setting [7]), the fold induction at 1 µM is below 0.05 and the fold induction at 8 µM lay in the range of 0.051 to 0.1. Besides, the IC50 at Cbl-b [6] is at most 500 nM.

Source of the values: patent US20220324835A1 (Nurix Therapeutics, Inc., priority 2018, published 2022).
